Data taken from patent US8343983B2, “Substituted pyrazolo-pyrimidine compounds” (ArQule, Inc., priority 2009, dated 2013).
Where two headings read alike, the source gives them in different places.

Test system: cancer cells
Assay: MTS assay: inhibition of cell growth (formazan absorbance at 492 nm after 72 hours with test compound)
Type: cell-based
Settings: inhibition class
Experimental: Cells were maintained at 37° C., 5% CO2 in DMEM media supplemented with 1% fetal bovine serum, penicillin/streptomycin and fungizone (Invitrogen). Cells were seeded into 96-well tissue culture plates at 3000 per well and cultured at 37° C. for 18 hours. Test compounds were dissolved and diluted to 300× in DMSO then diluted 1:40 in DMEM. Cells were incubated with test compounds for 72 hours followed by incubation with tetrazolium compound (3-(4,5-dimethylthiazol-2-yl)-5-(3-carboxymethoxyphenyl)-2-(4-sulfophenyl)-2H-tetrazolium, inner salt; MTS) and the electron coupling reagent, phenazine methosulfate (PMS) for 4 hours. […] The ability of compounds to inhibit cell growth in this assay is correlated with the reduction of dehydrogenase enzyme activity found in metabolically active cells. The measurement of the absorbance of the formazan was assessed using an ENVISION™ (Perkin Elmer) microplate reader at 492 nm. The calculated IC50 value is the concentration of the test compound that causes a 50% decrease in the absorbance. […] A=>79% inhibition, B=>50 to 79% inhibition, C=<50% inhibition.

[1] = Homo sapiens, DLD-1 cells, read-out: DLD-1, MTS 72 hours at 10 uM
[2] = Homo sapiens, KATO III cells, read-out: KATO III, MTS 72 hours at 10 uM
[3] = Homo sapiens, MDA-MB-231 cells, read-out: MDA-MB-231, MTS 72 hours at 10 uM
[4] = Homo sapiens, NCI-H1299 cells, read-out: NCI-H1299, MTS 72 hours at 10 uM
[5] = Homo sapiens, PC-3 cells, read-out: PC-3, MTS 72 hours at 10 uM
[6] = PACA-2 cells, read-out: PACA-2, MTS 72 hours at 10 uM

Measured: inhibition at 10 µM

CN(C)CCN(C)c1nc2c3c(n[nH]c3n1)CCN2Cc1ccccc1 [Compound 23, N-(6-benzyl-2,6,7,8-tetrahydro-1,2,3,5,6-pentaazaacenaphthylen-4-yl)-N,N′,N′-trimethylethane-1,2-diamine]
50 to 79%: [3]
> 79%: [5]
< 50%: [1] | [2] | [4] | [6]

CCC(C)Nc1nc2c3c(n[nH]c3n1)CCN2Cc1ccccc1 (stereo not drawn) [Compound 52, 6-benzyl-N-sec-butyl-2,6,7,8-tetrahydro-1,2,3,5,6-pentaazaacenaphthylen-4-amine]
< 50%: [5]
> 79%: [1] | [2] | [3]
50 to 79%: [4] | [6]

O=C(NCc1ccc2c(c1)OCO2)C1CN(Cc2ccccc2)c2nc(NCc3ccccc3)nc3[nH]nc1c23 (stereo not drawn) [Compound 234, N-(1,3-benzodioxol-5-ylmethyl)-6-benzyl-4-(benzylamino)-2,6,7,8-tetrahydro-1,2,3,5,6-pentaazaacenaphthylene-8-carboxamide]
50 to 79%: [6]
> 79%: [1] | [2] | [3] | [4] | [5]

FC(F)(F)c1ccnc(N2CCN(c3nc4c5c(n[nH]c5n3)CCN4Cc3ccccc3)CC2)n1 [Compound 4, 6-benzyl-4-{4-[4-(trifluoromethyl)pyrimidin-2-yl]piperazin-1-yl}-2,6,7,8-tetrahydro-1,2,3,5,6-pentaazaacenaphthylene]
50 to 79%: [1]
> 79%: [3] | [4] | [5]
< 50%: [2] | [6]

Fc1cccc(CNc2nc3c4c(n[nH]c4n2)CCN3)c1 [Compound 127, N-(3-fluorobenzyl)-2,6,7,8-tetrahydro-1,2,3,5,6-pentaazaacenaphthylen-4-amine]
> 79%: [1] | [2] | [3] | [5] | [6]
50 to 79%: [4]

O=C(NCc1ccccc1)C1CN(Cc2ccccc2)c2nc(N3CCCCC3)nc3[nH]nc1c23 (stereo not drawn) [Compound 227, N,6-dibenzyl-4-piperidin-1-yl-2,6,7,8-tetrahydro-1,2,3,5,6-pentaazaacenaphthylene-8-carboxamide]
> 79%: [1] | [3] | [4] | [5]
< 50%: [6]
50 to 79%: [2]

COc1ccc(CN2CCCc3n[nH]c4nc(NCc5cccnc5)nc2c34)cc1 [Compound 251, 6-(4-methoxybenzyl)-N-(pyridin-3-ylmethyl)-6,7,8,9-tetrahydro-2H-1,2,3,5,6-pentaazabenzo[cd]azulen-4-amine]
> 79%: [1] | [2] | [3] | [4] | [5] | [6]

CCOC(=O)N1CCN(c2nc3c4c(n[nH]c4n2)CCN3Cc2ccccc2)CC1 [Compound 89, ethyl 4-(6-benzyl-2,6,7,8-tetrahydro-1,2,3,5,6-pentaazaacenaphthylen-4-yl)piperazine-1-carboxylate]
> 79%: [3] | [5]
< 50%: [1] | [2] | [4] | [6]

Fc1ccc(CCNc2nc3c4c(n[nH]c4n2)CCN3)cc1 [Compound 124, N-[2-(4-fluorophenyl)ethyl]-2,6,7,8-tetrahydro-1,2,3,5,6-pentaazaacenaphthylen-4-amine]
50 to 79%: [6]
< 50%: [1] | [2] | [3] | [4] | [5]

C[C@@H]1CN(c2nc3c4c(n[nH]c4n2)CCN3Cc2ccccc2)C[C@H](C)O1 [Compound 96, 6-benzyl-4-[(2R,6S)-2,6-dimethylmorpholin-4-yl]-2,6,7,8-tetrahydro-1,2,3,5,6-pentaazaacenaphthylene]
> 79%: [2] | [3] | [5]
< 50%: [1] | [4] | [6]

c1ccc(CN2CCc3n[nH]c4nc(NCCc5ccccn5)nc2c34)cc1 [Compound 65, 6-benzyl-N-(2-pyridin-2-ylethyl)-2,6,7,8-tetrahydro-1,2,3,5,6-pentaazaacenaphthylen-4-amine]
< 50%: [1] | [2] | [3] | [4] | [5] | [6]

COc1ccc(CN2CCc3n[nH]c4nc(NCCc5c[nH]c6ccc(Cl)cc56)nc2c34)cc1 [Compound 115, N-[2-(5-chloro-1H-indol-3-yl)ethyl]-6-(4-methoxybenzyl)-2,6,7,8-tetrahydro-1,2,3,5,6-pentaazaacenaphthylen-4-amine]
> 79%: [1] | [2] | [3] | [4] | [5] | [6]

c1ccc(CN2CCc3n[nH]c4nc(NCCc5c[nH]c6ccccc56)nc2c34)cc1 [Compound 26, 6-benzyl-N-[2-(1H-indol-3-yl)ethyl]-2,6,7,8-tetrahydro-1,2,3,5,6-pentaazaacenaphthylen-4-amine]
< 50%: [1] | [2] | [3] | [4] | [5] | [6]

COc1cccc(N2CCN(c3nc4c5c(n[nH]c5n3)CCN4Cc3ccccc3)CC2)c1 [Compound 9, 6-benzyl-4-[4-(3-methoxyphenyl)piperazin-1-yl]-2,6,7,8-tetrahydro-1,2,3,5,6-pentaazaacenaphthylene]
< 50%: [1] | [2] | [4] | [6]
> 79%: [3] | [5]

COc1ccccc1N1CCN(c2nc3c4c(n[nH]c4n2)CCN3Cc2ccccc2)CC1 [Compound 43, 6-benzyl-4-[4-(2-methoxyphenyl)piperazin-1-yl]-2,6,7,8-tetrahydro-1,2,3,5,6-pentaazaacenaphthylene]
> 79%: [2] | [3] | [5]
< 50%: [1] | [4] | [6]

FC(F)(F)c1cccc(N2CCN(c3nc4c5c(n[nH]c5n3)CCN4Cc3ccccc3)CC2)c1 [Compound 38, 6-benzyl-4-{4-[3-(trifluoromethyl)phenyl]piperazin-1-yl}-2,6,7,8-tetrahydro-1,2,3,5,6-pentaazaacenaphthylene]
< 50%: [1] | [2] | [3] | [4] | [5] | [6]

COc1ccc(CN2CCc3n[nH]c4nc(NCc5ccccc5Cl)nc2c34)cc1 [Compound 112, N-(2-chlorobenzyl)-6-(4-methoxybenzyl)-2,6,7,8-tetrahydro-1,2,3,5,6-pentaazaacenaphthylen-4-amine]
< 50%: [4]
> 79%: [1] | [2] | [3] | [5] | [6]

COc1ccc(CN2CCc3n[nH]c4nc(NC5CCCCC5)nc2c34)cc1 [Compound 107, N-cyclohexyl-6-(4-methoxybenzyl)-2,6,7,8-tetrahydro-1,2,3,5,6-pentaazaacenaphthylen-4-amine]
< 50%: [1] | [2] | [3] | [4] | [5] | [6]

COc1ccc(CN2CCc3n[nH]c4nc(NCc5ccccc5)nc2c34)cc1 [Compound 100, N-benzyl-6-(4-methoxybenzyl)-2,6,7,8-tetrahydro-1,2,3,5,6-pentaazaacenaphthylen-4-amine]
< 50%: [1] | [2] | [3] | [4] | [5] | [6]

CSc1nc2c3c(n[nH]c3n1)CCN2Cc1ccccc1 [Compound 1, 6-benzyl-4-(methylthio)-2,6,7,8-tetrahydro-1,2,3,5,6-pentaazaacenaphthylene]
< 50%: [1] | [2] | [3] | [4] | [5] | [6]

c1ccc(CN2CCN(c3nc4c5c(n[nH]c5n3)CCN4c3ccccc3)CC2)cc1 [Compound 217, 4-(4-benzylpiperazin-1-yl)-6-phenyl-2,6,7,8-tetrahydro-1,2,3,5,6-pentaazaacenaphthylene]
< 50%: [1] | [2] | [3] | [4] | [5] | [6]
